Results as given in patent publication US10765114B2, “4-amino-6-(pyridyl and 2-substitutedphenyl)-picolinates and 6-amino-2-(pyridyl and 2-substitutedphenyl)-pyrimidine-4-carboxylates and their use as herbicides” (Dow AgroSciences LLC, priority 2013, dated 2020).
Read-outs that look alike come from different tables or passages of the source.

Assays:
[1] = test system: Key Broadleaf Weed and Crop Species; assay: Post-Emergent Test II (Table 5); assay type: in vivo; conditions: post-emergence, 336 h; for pest or weed control at 70 g/ha: application rate 70 (kg ai/ha; footnote: g ai/ha); for pest or weed control at 140 g/ha: application rate 140 (kg ai/ha; footnote: g ai/ha)
Summary of the method: (§1)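 Seedlings are raised 7-21 days in Metro-Mix 360 (pH 6.0-6.8) under greenhouse conditions, then sprayed at the first or second true leaf stage. Application is 187 L/ha, with serial rates down to 1/16× of the highest. Plants are subirrigated, and percent injury is rated visually after 14 days.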

[2] = test system: Key Grass and Sedge Weeds as well as Grass Crops; assay: Post-Emergent Test II (Table 6); assay type: in vivo; conditions: post-emergence, 336 h, 14 days after application; for pest or weed control at 70 g/ha: 70 g ai/ha; for pest or weed control at 140 g/ha: 140 g ai/ha
Summary of the method: as §1

[3] = Abutilon theophrasti, ABUTH: velvetleaf (Abutilon theophrasti), read-out: Visual Growth Reduction (%) 14 Days After Application ABUTH
[4] = Amaranthus retroflexus, AMARE: redroot pigweed (Amaranthus retroflexus), read-out: Visual Growth Reduction (%) 14 Days After Application AMARE
[5] = Brassica napus, BRSSS: oilseed rape, canola (Brassica napus), read-out: Visual Growth Reduction (%) 14 Days After Application BRSSS
[6] = Chenopodium album, CHEAL: lambsquarters (Chenopodium album), read-out: Visual Growth Reduction (%) 14 Days After Application CHEAL
[7] = Euphorbia heterophylla, EPHHL: wild poinsettia (Euphorbia heterophylla), read-out: Visual Growth Reduction (%) 14 Days After Application EPHHL
[8] = Helianthus annuus, HELAN: sunflower (Helianthus annuus), read-out: Visual Growth Reduction (%) 14 Days After Application HELAN
[9] = Viola tricolor, VIOTR: wild pansy (Viola tricolor), read-out: Visual Growth Reduction (%) 14 Days After Application VIOTR
[10] = CYPSS, read-out: Visual Growth Reduction (%) 14 Days After Application CYPSS
[11] = DIGSA: crabgrass (Digitaria sanguinalis), read-out: Visual Growth Reduction (%) 14 Days After Application DIGSA
[12] = ORYSS (crop), read-out: Visual Growth Reduction (%) 14 Days After Application ORYSS
[13] = SORVU: grain sorghum (Sorghum vulgare), read-out: Visual Growth Reduction (%) 14 Days After Application SORVU
[14] = TRZSS (crop), read-out: Visual Growth Reduction (%) 14 Days After Application TRZSS
[15] = ZEAMX: maize, corn (Zea mays), read-out: Visual Growth Reduction (%) 14 Days After Application ZEAMX
[16] = ECHSS, read-out: Visual Growth Reduction (%) 14 Days After Application ECHSS
[17] = SETFA: giant foxtail (Setaria faberi), read-out: Visual Growth Reduction (%) 14 Days After Application SETFA

Cc1c(-c2ccc(C(F)(F)F)nc2)nc(C(=O)O)c(Cl)c1N [Compound 51, 4-amino-5-chloro-3-methyl-6′-(trifluoromethyl)-[2,3′-bipyridine]-6-carboxylic acid]
pest or weed control at 70 g/ha [1, 3]: 0 to 29% | pest or weed control at 140 g/ha [1, 3]: 0 to 29% | pest or weed control at 70 g/ha [1, 4]: 0 to 29% | pest or weed control at 140 g/ha [1, 4]: 0 to 29% | pest or weed control at 70 g/ha [1, 5]: 60 to 74% | pest or weed control at 140 g/ha [1, 5]: 85 to 94% | pest or weed control at 70 g/ha [1, 6]: 0 to 29% | pest or weed control at 140 g/ha [1, 6]: 85 to 94% | pest or weed control at 70 g/ha [1, 7]: 0 to 29% | pest or weed control at 140 g/ha [1, 7]: 0 to 29% | pest or weed control at 70 g/ha [1, 8]: 85 to 94% | pest or weed control at 140 g/ha [1, 8]: 85 to 94% | pest or weed control at 70 g/ha [1, 9]: 0 to 29% | pest or weed control at 140 g/ha [1, 9]: 0 to 29% | melting point: 140 to 160 °C | pest or weed control at 70 g/ha [2, 10]: 95 to 100% | pest or weed control at 140 g/ha [2, 10]: 95 to 100% | pest or weed control at 70 g/ha [2, 11]: 60 to 74% | pest or weed control at 140 g/ha [2, 11]: 60 to 74% | pest or weed control at 70 g/ha [2, 12]: 0 to 29% | pest or weed control at 140 g/ha [2, 12]: 0 to 29% | pest or weed control at 70 g/ha [2, 13]: 75 to 84% | pest or weed control at 140 g/ha [2, 13]: 75 to 84% | pest or weed control at 70 g/ha [2, 14]: 30 to 44% | pest or weed control at 140 g/ha [2, 14]: 45 to 59% | pest or weed control at 70 g/ha [2, 15]: 60 to 74% | pest or weed control at 140 g/ha [2, 15]: 60 to 74%

Cc1c(-c2cc(N)c(Cl)c(C(=O)O)n2)ccc(Cl)c1F [Compound 52]
pest or weed control at 70 g/ha [1, 3]: 95 to 100% | pest or weed control at 140 g/ha [1, 3]: 95 to 100% | pest or weed control at 70 g/ha [1, 4]: 95 to 100% | pest or weed control at 140 g/ha [1, 4]: 95 to 100% | pest or weed control at 70 g/ha [1, 5]: 95 to 100% | pest or weed control at 140 g/ha [1, 5]: 95 to 100% | pest or weed control at 70 g/ha [1, 6]: 95 to 100% | pest or weed control at 140 g/ha [1, 6]: 95 to 100% | pest or weed control at 70 g/ha [1, 7]: 75 to 84% | pest or weed control at 140 g/ha [1, 7]: 85 to 94% | pest or weed control at 70 g/ha [1, 8]: 95 to 100% | pest or weed control at 140 g/ha [1, 8]: 95 to 100% | pest or weed control at 70 g/ha [1, 9]: 85 to 94% | pest or weed control at 140 g/ha [1, 9]: 85 to 94% | melting point: 160 to 162 °C | pest or weed control at 70 g/ha [2, 10]: 85 to 94% | pest or weed control at 140 g/ha [2, 10]: 95 to 100% | pest or weed control at 70 g/ha [2, 11]: 0 to 29% | pest or weed control at 140 g/ha [2, 11]: 30 to 44% | pest or weed control at 70 g/ha [2, 16]: 30 to 44% | pest or weed control at 140 g/ha [2, 16]: 45 to 59% | pest or weed control at 70 g/ha [2, 12]: 0 to 29% | pest or weed control at 140 g/ha [2, 12]: 0 to 29% | pest or weed control at 70 g/ha [2, 17]: 0 to 29% | pest or weed control at 140 g/ha [2, 17]: 45 to 59% | pest or weed control at 70 g/ha [2, 13]: 0 to 29% | pest or weed control at 140 g/ha [2, 13]: 30 to 44% | pest or weed control at 70 g/ha [2, 14]: 45 to 59% | pest or weed control at 140 g/ha [2, 14]: 60 to 74% | pest or weed control at 70 g/ha [2, 15]: 45 to 59% | pest or weed control at 140 g/ha [2, 15]: 60 to 74%

COc1nc(Cl)ccc1-c1cc(N)c(Cl)c(C(=O)O)n1 [Compound 57]
pest or weed control at 70 g/ha [1, 3]: 85 to 94% | pest or weed control at 140 g/ha [1, 3]: 85 to 94% | pest or weed control at 70 g/ha [1, 4]: 95 to 100% | pest or weed control at 140 g/ha [1, 4]: 95 to 100% | pest or weed control at 70 g/ha [1, 5]: 75 to 84% | pest or weed control at 140 g/ha [1, 5]: 75 to 84% | pest or weed control at 70 g/ha [1, 6]: 85 to 94% | pest or weed control at 140 g/ha [1, 6]: 85 to 94% | pest or weed control at 70 g/ha [1, 7]: 0 to 29% | pest or weed control at 140 g/ha [1, 7]: 0 to 29% | pest or weed control at 70 g/ha [1, 8]: 85 to 94% | pest or weed control at 140 g/ha [1, 8]: 85 to 94% | pest or weed control at 70 g/ha [1, 9]: 0 to 29% | pest or weed control at 140 g/ha [1, 9]: 0 to 29% | melting point: 170 to 171 °C | pest or weed control at 70 g/ha [2, 10]: 0 to 29% | pest or weed control at 140 g/ha [2, 10]: 0 to 29% | pest or weed control at 70 g/ha [2, 11]: 0 to 29% | pest or weed control at 140 g/ha [2, 11]: 0 to 29% | pest or weed control at 70 g/ha [2, 16]: 0 to 29% | pest or weed control at 140 g/ha [2, 16]: 0 to 29% | pest or weed control at 70 g/ha [2, 12]: 0 to 29% | pest or weed control at 140 g/ha [2, 12]: 0 to 29% | pest or weed control at 70 g/ha [2, 17]: 0 to 29% | pest or weed control at 140 g/ha [2, 17]: 0 to 29% | pest or weed control at 70 g/ha [2, 13]: 0 to 29% | pest or weed control at 140 g/ha [2, 13]: 0 to 29% | pest or weed control at 70 g/ha [2, 14]: 0 to 29% | pest or weed control at 140 g/ha [2, 14]: 0 to 29% | pest or weed control at 70 g/ha [2, 15]: 0 to 29% | pest or weed control at 140 g/ha [2, 15]: 0 to 29%
